# “Also recorded” adds a separate entry of the source. Marks after values point to notes of the source that are not given here.
# Key:
# Assay type in all cases: in vivo
# male NMRI mice [1] = assay: Forced swim test in mice; settings: for Average Immobility Time: forced swim test, 60 minutes pre-test, last four minutes of test
# rat = assay: Test for possible sedative activity (motor activity) in the rat; settings: 200 mg/kg, up to fifty times the oral effective dose in the MES test
# Protocol: (S)-1-Phenyl-2-(2-pyridyl)ethanamine was further tested for possible sedative activity in the rat. At doses up to fifty times the oral effective dose in the maximum electroshock seizure test (MES), (S)-1-phenyl-2-(2-pyridyl)ethanamine induced no changes in four parameters of motor activity, namely, distance travelled, ambulatory time, stereotyped time and resting time. The dose administered was 200 mg/kg.
# male NMRI mice [2] = assay: Small tube test in mice; settings: for Average Immobility Time: small tube test, 60 minutes pre-test, last four minutes of test; for Effect on immobility in the small tube test, in words: summary of Table 2, check for non-specific stimulant activity
Molecule,Average Immobility Time (male NMRI mice [1]; dose 1 mg/kg i.p.),Average Immobility Time (male NMRI mice [1]; dose 3 mg/kg i.p.),Average Immobility Time (male NMRI mice [1]; dose 10 mg/kg i.p.),"Effect in the forced swim test (reduction in immobility time), in words (male NMRI mice [1]; summary of Table 1, dihydrochloride)","Changes in four parameters of motor activity (distance travelled, ambulatory time, stereotyped time and resting time) (rat)",Average Immobility Time (male NMRI mice [2]; dose 1 mg/kg i.p.),Average Immobility Time (male NMRI mice [2]; dose 3 mg/kg i.p.),Average Immobility Time (male NMRI mice [2]; dose 10 mg/kg i.p.),"Effect on immobility in the small tube test, in words (male NMRI mice [2])",Average Immobility Time (male NMRI mice [1]; dose 0.01 mg/kg i.p.),Average Immobility Time (male NMRI mice [1]; dose 0.03 mg/kg i.p.),Average Immobility Time (male NMRI mice [1]; dose 0.1 mg/kg i.p.),Average Immobility Time (male NMRI mice [1]; dose 0.3 mg/kg i.p.),"Effect in the forced swim test (reduction in immobility time), in words (male NMRI mice [1]; summary of Table 1)",Average Immobility Time (male NMRI mice [2]; dose 0.01 mg/kg i.p.),Average Immobility Time (male NMRI mice [2]; dose 0.03 mg/kg i.p.),Average Immobility Time (male NMRI mice [2]; dose 0.1 mg/kg i.p.),Average Immobility Time (male NMRI mice [2]; dose 0.3 mg/kg i.p.)
Cl.Cl.N[C@@H](Cc1ccccn1)c1ccccc1 [(S)-1-phenyl-2-(2-pyridyl)ethanamine dihydrochloride],158 s,120* seconds,145* seconds,positive effects; also recorded: have activity in the mouse forced swim test,no changes,192 s,210* seconds,201 s,little effect,,,,,,,,,
(+)-MK 801,,,,,,,,,reduced immobility,155 s,164 s,80* seconds,10* seconds,positive effects,190 s,173 s,128* seconds,84* seconds
"CN(C)CCCN1c2ccccc2CCc2ccccc21 [Imipramine, imipramine]",,,143* seconds,,,,,202 s,little effect,,,,,very similar result to that observed with (S)-1-phenyl-2-(2-pyridyl)ethanamine,,,,

# — patent US6479553B1, “Use of certain affinity NMDA antagonists as antidepressants” (AstraZeneca AB, priority 1999, dated 2002)
